Results from patent US20030162777A1, “Novel N-acylated heterocycles” (Recordati S.A., priority 2001, published 2003).
pKi: −log10 of the molar value.

What follows are compounds tested against T1, human 5HT1A-serotonergic receptor (Homo sapiens, UniProt P08908) (assay: Radioligand binding to recombinant 5-HT1A receptors). Conditions: [3H]8-OH-DPAT 1 nM, membranes of HeLa cells with human 5-HT1A receptor; Ki from IC50 by Cheng & Prusoff; read-out: Binding affinity for 5HT1A receptors, Ki.
T1 construct: expressed in transfected cells; host or cells: HeLa (human cell line), stably transfected; cell membranes used
T1 sequence (P08908 1-422): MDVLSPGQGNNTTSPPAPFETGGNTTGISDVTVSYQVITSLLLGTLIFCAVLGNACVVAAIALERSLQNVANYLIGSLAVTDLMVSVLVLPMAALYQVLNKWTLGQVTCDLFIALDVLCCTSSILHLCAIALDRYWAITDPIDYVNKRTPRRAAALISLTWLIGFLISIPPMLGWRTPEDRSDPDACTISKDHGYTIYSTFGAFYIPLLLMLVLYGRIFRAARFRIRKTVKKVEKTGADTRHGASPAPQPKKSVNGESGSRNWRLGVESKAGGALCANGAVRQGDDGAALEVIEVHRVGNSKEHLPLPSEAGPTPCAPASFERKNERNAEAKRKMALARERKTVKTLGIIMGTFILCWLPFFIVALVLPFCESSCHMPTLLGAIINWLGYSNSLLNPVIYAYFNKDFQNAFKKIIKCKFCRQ
Method: Genomic clone G-21 coding for the human 5HT1A-serotonergic receptor was stably transfected in a human cell line (HeLa). HeLa cells were grown as monolayers in Dulbecco's modified Eagle medium (DMEM), containing 10% foetal bovine serum, gentamicin ([…]) and 5% carbon dioxide, at 37° C. The cells were detached from the growth flask at 95% confluence by a cell scraper and were lysed in cold 5 mM Tris and 5 mM EDTA buffer (pH 7.4). The homogenates were centrifuged at 40000×g×20 minutes and the pellets were resuspended in a small volume of cold 5 mM Tris and 5 mM EDTA buffer (pH 7.4) and immediately frozen and stored at −70° C. until use. On the day of experiment, the cell membranes were resuspended in incubation buffer: 50 mM Tris HCl (pH 7.4), 2.5 mM MgCl2, […] (Fargin et al., Nature 335, 358-360, 1988). The membranes were incubated in a final volume of 1 ml for 30 minutes at 30° C. with 1 nM [^3H]8-OH-DPAT, in the absence or presence of the test compounds. Non-specific binding was determined in the presence of 10 μM 5-HT. Incubation was stopped by addition of cold Tris-HC 1 buffer and rapid filtration through a 0.2%-polyethyleneimine-pretreated Whatman-GF/B or Schleicher-&-Schuell-GF52 filter.
The affinity of the tested compounds was evaluated as inhibition of specific binding of the radioligand to 5-HT1A receptors (IC50) by using the non-linear curve-fitting program Allfit (De Lean et al., Am. J. Physiol. 235, E97-E102 (1978). The IC50 value was converted to an affinity constant (Ki) by the equation of Cheng & Prusoff (Cheng Y. C., Prusoff W. H., Biochem. Pharmacol. 22, 3099-3108 (1973)).

Compound | pKi
O=C(c1ccc(N2CCOCC2)nc1)N1c2ccccc2CCC1CN1CCN(c2cccc3[nH]ccc23)CC1 (centres unmarked) [Example 68A52, 1-(4-Indolyl)-4-[1-[2-(4-morpholinyl)pyridine-5-carbonyl]-1,2,3,4-tetrahydroquinoline-2-ylmethyl]piperazine] | 7.74
O=S(=O)(c1ccccc1)N1c2ccccc2CCC1CN1CCN(c2cccc3c2OCCO3)CC1 (centres unmarked) [Example 76A10, 1-(1-Benzenesulphonyl-1,2,3,4-tetrahydroquinolin-2-ylmethyl)-4-(2,3-dihydrobenzo[1,4]dioxin-5-yl)piperazine] | 7.67
CN(CCOc1ccccc1Cl)CC1CCc2ccccc2N1C(=O)C1CCCCC1 (centres unmarked) [Example 72A84, N-(1-Cyclohexanecarbonyl-1,2,3,4-tetrahydroquinolin-2-ylmethyl)-2-(2-chlorophenoxy)ethylmethylamine] | 7.80
O=C(c1ccccc1Cl)N1c2ccccc2CCC1CN1CCN(c2cccc3[nH]ccc23)CC1 (centres unmarked) [Example 68A4, 1-[1-(2-Chlorobenzoyl)-1,2,3,4-tetrahydroquinoline-2-ylmethyl]-4-(4-indolyl)piperazine] | 8.33
1-(2-Furoyl-1,2,3,4-tetrahydroquinoline-2-ylmethyl)-4-(4-indolyl)piperazine [Example 68A13] | 8.28
O=C(C1CCCCC1)N1c2ccccc2CCC1CN1CCN(c2ccc(Br)c3[nH]ccc23)CC1 (centres unmarked) [Example 35A32, 1-(7-Bromo-4-indolyl)-4-(1-cyclohexanecarbonyl-1,2,3,4-tetrahydroquinoline-2-ylmethyl)piperazine] | 7.70
Cc1ccccc1C1CCN(CC2CCc3ccccc3N2C(=O)C2CCCCC2)CC1 (centres unmarked) [Example 72A56, 1-(1-Cyclohexanecarbonyl-1,2,3,4-tetrahydroquinolin-2-ylmethyl)-4-(2-methylphenyl)piperidine] | 8.00
O=C(COc1ccccc1Cl)N1c2ccccc2CCC1CN1CCN(c2cccc3[nH]ccc23)CC1 (centres unmarked) [Example 68A50, 1-[1-[2-(2-Chlorophenoxy)acetyl]-1,2,3,4-tetrahydroquinoline-2-ylmethyl]-4-(4-indolyl)piperazine] | 7.56
O=C(CCCc1ccccc1)N1c2ccccc2CCC1CN1CCN(c2cccc3[nH]ccc23)CC1 (centres unmarked) [Example 68A66, 1-(4-Indolyl)-1-[1-(4-phenylbutanoyl)-1,2,3,4-tetrahydroquinoline-2-ylmethyl]piperazine] | 7.71
O=C(Cc1ccccc1F)N1c2ccccc2CCC1CN1CCN(c2cccc3[nH]ccc23)CC1 (centres unmarked) [Example 68A63, 1-(4-Indolyl)-4-[1-[2-(2-fluorophenylacetyl)]-1,2,3,4-tetrahydroquinoline-2-ylmethyl]piperazine] | 8.06
O=C(Cc1ccccc1C(F)(F)F)N1c2ccccc2CCC1CN1CCN(c2cccc3[nH]ccc23)CC1 (centres unmarked) [Example 68A64, 1-(4-Indolyl)-4-[1-[2-(2-trifluoromethylphenylacetyl)]-1,2,3,4-tetrahydroquinoline-2-ylmethyl]piperazine] | 7.87
COc1cc(F)ccc1N1CCN(CC2CCc3cccc(C)c3N2C(=O)C2CCCCC2)CC1 (centres unmarked) [Example 67, 1-(1-Cyclohexanecarbonyl-8-methyl-1,2,3,4-tetrahydroquinoline-2-ylmethyl)-4-(4-fluoro-2-methoxyphenyl)piperazine] | 7.53
O=C(c1ccccn1)N1c2ccccc2CCC1CN1CCN(c2cccc3[nH]ccc23)CC1 (centres unmarked) [Example 68A32, 1-(4-Indolyl)-4-[1-(2-pyridylcarbonyl)-1,2,3,4-tetrahydroquinoline-2-ylmethyl]piperazine] | 7.71
COc1ccc(C#N)cc1N1CCN(CC2CCc3ccccc3N2C(=O)C2CCCCC2)CC1 (centres unmarked) [Example 35A24, 1-(5-Cyano-2-methoxyphenyl)-4-(1-cyclohexanecarbonyl-1,2,3,4-tetrahydroquinoline-2-ylmethyl)piperazine] | 7.94
COc1ccccc1OCCN(C)CC1CCc2ccccc2N1C(=O)CC(C)(C)C (centres unmarked) [Example 77A1, N-[1-(3,3-Dimethylbutanoyl)-1,2,3,4-tetrahydroquinolin-2-ylmethyl]-N-[2-(2-methoxyphenoxy)ethyl]methylamine] | 7.62
CC(=O)N1CCC(C(=O)N2c3ccccc3CCC2CN2CCN(c3cccc4[nH]ccc34)CC2)CC1 (centres unmarked) [Example 68A38, 1-[1-(1-Acetylpiperidine-4-carbonyl)-1,2,3,4-tetrahydroquinoline-2-ylmethyl]-4-(4-indolyl)piperazine] | 7.61
O=C(C1CCCCC1)N1c2ccccc2CCC1CN1CCC(c2ccccc2Cl)CC1 (centres unmarked) [Example 72A69, 4-(2-Chlorophenyl)-1-(1-cyclohexanecarbonyl-1,2,3,4-tetrahydroquinolin-2-ylmethyl)piperidine] | 8.41
O=C(C1CCCCC1)N1c2ccccc2CCC1CN1CCN(c2cc(Cl)cc3c2OCCO3)CC1 (centres unmarked) [Example 60A11, 1-(7-Chloro-2,3-dihydro-1,4-benzodioxin-5-yl)-4-(1-cyclohexanecarbonyl-1,2,3,4-tetrahydroquinoline-2-ylmethyl)piperazine] | 7.97
O=C(NCCc1ccccc1)N1c2ccccc2CCC1CN1CCN(c2cccc3[nH]ccc23)CC1 (centres unmarked) [Example 69A10, 1(4-Indolyl)-4-[1-(2-phenylethylaminocarbonyl)-1,2,3,4-tetrahydroquinoline-2-ylmethyl]piperazine] | 7.87

More lines, now with the values ahead:

pKi | Compound
8.27 | O=C(CC1CC1)N1c2ccccc2CCC1CN1CCN(c2cccc3c2OCCO3)CC1 (centres unmarked) [Example 76A1, 4-[1-(2-Cyclopropylacetyl)-1,2,3,4-tetrahydroquinolin-2-ylmethyl]-1-(2,3-dihydrobenzo[1,4]dioxin-5-yl)piperazine]
7.56 | CC(C)(C)NC(=O)N1c2ccccc2CCC1CN1CCN(c2nccc3ccccc23)CC1 (centres unmarked) [Example 75A15, 1-(1-Isoquinolinyl)-4-[1-(1,1-Dimethyethylaminocarbonyl)-1,2,3,4-tetrahydroquinolin-2-ylmethyl]piperazine]
8.04 | O=C(c1ccc[nH]1)N1c2ccccc2CCC1CN1CCN(c2cccc3[nH]ccc23)CC1 (centres unmarked) [Example 68A, 1-(4-Indolyl)-4-[1-(2-pyrrolylcarbonyl)-1,2,3,4-tetrahydroquinoline-2-ylmethyl]piperazine]
8.35 | O=S(=O)(Cc1ccccc1)N1c2ccccc2CCC1CN1CCN(c2cccc3c2OCCO3)CC1 (centres unmarked) [Example 76A11, 1-(2,3-Dihydrobenzo[1,4]dioxin-5-yl)-4-(1-phenylmethanesulphonyl-1,2,3,4-tetrahydroquinolin-2-ylmethyl)piperazine]
7.85 | O=C(c1ccc[nH]1)N1c2ccccc2CCC1CN1CCN(c2nccc3ccccc23)CC1 (centres unmarked) [Example 75A3, 1-(1-Isoquinolinyl)-4-[1-(2-pyrrolylcarbonyl)-1,2,3,4-tetrahydroquinolin-2-ylmethyl]piperazine]
8.09 | COc1cc(F)ccc1N1CCN(CC2CCc3cc(C)ccc3N2C(=O)C2CCCCCC2)CC1 (centres unmarked) [Example 73A13, 1-(1-Cycloheptanecarbonyl-1,2,3,4-tetrahydroquinolin-6-methyl-2-ylmethyl)-4-(4-fluoro-2-methoxyphenyl)piperazine]
7.58 | O=C(C1CCC1)N1c2ccccc2CCC1CN1CCN(c2nccc3ccccc23)CC1 (centres unmarked) [Example 75A10, 1-(1-Cyclobutanecarbonyl-1,2,3,4-tetrahydroquinolin-2-ylmethyl)-4-(1-isoquinolinyl)piperazine]
8.51 | O=C(C1CCCCC1)N1c2ccccc2CCC1CN1CCN(c2cccc3cc[nH]c23)CC1 (centres unmarked) [Example 35A26, 1-(1-Cyclohexanecarbonyl-1,2,3,4-tetrahydroquinoline-2-ylmethyl)-4-(7-indolyl)piperazine]
7.55 | Cc1ccc(Cl)cc1N1CCN(CC2CCc3ccccc3N2C(=O)C2CCCCC2)CC1 (centres unmarked) [Example 72A29, 1-(5-Chloro-2-methylphenyl)-4-(1-cyclohexanecarbonyl-1,2,3,4-tetrahydroquinolin-2-ylmethyl)piperazine]
8.02 | O=C(CCOCc1ccccc1)N1c2ccccc2CCC1CN1CCN(c2cccc3[nH]ccc23)CC1 (centres unmarked) [Example 9, 1-[1-(3-Benzyloxypropionyl)-1,2,3,4-tetrahydroquinoline-2-ylmethyl]-4-(4-indolyl)piperazine]
